Laboratory results from patent US11981702B2, “Compounds for fluorescence sensing of duplex formation” (San Diego State University Research Foundation, priority 2016, dated 2024).
Read-outs that look alike come from different tables or passages of the source. [8-DEA-tC] = 8-diethylamino tricyclic cytidine analogue (fluorescent), on 2'-deoxyribose

Key:
[1] = UV/Vis absorption and steady state emission spectra; assay type: physicochemical; conditions: for ds λmax,abs / ds λmax,em: double-stranded; for ds λmax,abs / ds λmax,em / λmax,abs (ss) / λmax,em (ss): 1x PBS buffer pH 7.4; for λmax,abs (ss) / λmax,em (ss): single-stranded
Experimental: (§1) All photophysical experiments were measured in a quartz sub-micro cuvette (10 mm path length) purchased from Starnacell Inc. Solutions were prepared in 1×PBS buffer at pH 7.4. Steady state emission scans were recorded using a PTI QuantaMaster QM-400 and absorbances were measured on a Shimadzu UV-1700 Pharmaspec spectrometer. Quantum yield measurements were performed the comparative method of Williams et. al. and measured in duplicate, at minimum.[7] Quinine sulfate in 0.1M H2SO4 was used as a reference standard for all photophysical measurements. Measurements by using a commercial sample of pyrrolo-dC to obtain a fluorescence quantum yield of 0.046, matching the value of 0.05 as reported by the Tor group were validated.[8] All measurements were taken with an absorbance range of 0.01-0.1. Subsequent dilutions were performed stepwise in order to obtain a minimum of five absorbance and emission spectra for quantum yield determinations. Representative data from these quantum yield measurements is plotted below. Quantum yield determinations were obtained using the following equation: […]
Normalized absorption and emission plots of single-stranded oligonucleotides and double-stranded oligonucleotides in 1×PBS buffer at pH 7.4 were determined accordingly.

[2] = Quantum yield of fluorescence emission, comparative method of Williams et al., quinine sulfate standard (free nucleosides, single-stranded oligonucleotides); assay type: physicochemical; conditions: for ss Φem: single-stranded oligonucleotide, 1x PBS buffer pH 7.4
Experimental: (§2) Quantum yields of fluorescence emission were determined using the comparative method of Williams et. al. (Analyst 1983, 108, 1067) and a fluorescence standard of quinine sulfate in 0.1M H2SO4 (Table 1 and FIG. 2). The single-stranded oligonucleotides have quantum yields of fluorescence emission ranging from Φem=0.01-0.03, all brighter than the free 8-DEA-tC nucleoside by up to a factor of five. Addition of the complementary sequences and duplex formation results in further fluorescence increase in all sequences, up to Φem=0.12 for sequence GC. This quantum yield is 20-fold greater than that of the free 8-DEA-tC nucleoside, the largest such increase reported to date for a fluorescent nucleoside analogue.
as §1
The determination of quantum yields for single-stranded oligonucleotides containing 8-DEA tC were calculated using the integrated emission intensity measurements of the single strand prior to the addition of the complementary strand, with the following equation. This method was validated by comparison with and confirmed with a SS quantum yield experiment.

complementary strand [3] = assay: Quantum yield of fluorescence emission of double-stranded oligonucleotides after adding complementary strand; assay type: physicochemical; conditions: for ds Φem: double-stranded oligonucleotide, 1x PBS buffer pH 7.4; for increase in fluorescent quantum yield in duplex DNA as compared with the free nucleoside: matched duplex, depending on neighboring bases
Experimental: as §2, §1
Samples of double-stranded oligonucleotides were prepared using a known concentration of single-stranded oligonucleotide and adding a total of 2.4 equivalents of complementary strand at room temperature. A single-strand absorbance and emission were taken prior to the addition of the first 1.2 equivalents of complementary strand for purposes of single-strand calculation and verification of hybridization. An additional 1.2 equivalent is added after the first double-strand to ensure that complete hybridization was achieved. Thermal annealing procedures had no effect on the measurements as expected, given that these sequences were chosen to have no competing, stable secondary structures.

complementary strand [4] = assay: CD melting temperature of oligonucleotide duplexes (ellipticity at 255 nm); assay type: physicochemical; conditions: for ΔTm: Tm for natural DNA duplex subtracted from Tm for the 8-DEA-tC-containing duplex; for Tm: duplex 5 μM in PBS pH 7.4
Experimental: UV CD spectra of oligonucleotide duplexes at a concentration of 5 μM in phosphate buffered saline (10 mM sodium phosphate, pH 7.4, […] potassium chloride, 137 mM sodium chloride) were collected at 25° C. in a 1 cm path length cell on an Aviv model 420 spectrophotometer equipped with a Peltier temperature controller. Background-subtracted spectra were smoothed and normalized to concentration using A260 nm as calculated from detector voltage using the following equation and converted to standard units. […] 255 nm was monitored from 15° C. to 75° C. at 1° C. increments. The TM of each duplex was calculated by fitting the raw data to a two-state model in Igor Pro. Melting curves are reported as fraction unfolded.

matching complement = assay: Visual discrimination of single nucleotide mismatch under hand-held UV lamp; assay type: physicochemical; conditions: 0.26 mM in 0.5X PBS buffer, versus oligo alone and mismatch duplex
Experimental: Next, the ability of 8-DEA-tC to distinguish single nucleotide by a visible fluorescence response was tested (FIG. 5). 0.26 mM solutions of GC oligo in 0.5X PBS buffer were prepared with the GC oligo alone, a duplex with the matching complement, and a duplex with an 8-DEA-tC mismatch.

[5] = UV/Vis absorption and steady state emission spectra; assay type: physicochemical; conditions: free nucleoside, 1,4-dioxane
[6] = Stern-Volmer analysis of chloride quenching; assay type: physicochemical; conditions: 0 mM to 180 mM NaCl
Experimental: To test the ability of the duplex to attenuate chloride quenching of 8-DEA-tC, a Stern-Volmer analysis was performed using the 8-DEA-tC nucleoside and the TT duplex oligonucleotide (see Examples section below). […] In contrast, chloride has a modest quenching effect on 8-DEA-tC when present in the matched TT duplex.
In order to assess the magnitude that chloride, present in our buffers, would quench the fluorescent cytidine analogues, a Stern-Volmer analysis was performed spanning from 0 mM NaCl to 180 mM NaCl to mimic the environment of the 1XPBS buffer used in the fluorescence measurements of the oligomers.
A solution fluorophore was prepared and a known volumes of a 0.5 M NaCl solution were titrated in and the resulting fluorescence change was measured. The dilution factor was taken into account when calculating integrated fluorescence intensity.

[7] = Quantum yield of fluorescence emission, comparative method of Williams et al., quinine sulfate standard (free nucleosides, single-stranded oligonucleotides); assay type: physicochemical; conditions: free nucleoside, 1,4-dioxane
[8] = Viscosity sensitivity of fluorescence in methanol-glycerol mixtures; assay type: physicochemical; conditions: 25° C.
Source text: It was hypothesized that the C—N bond appending the diethylamino group to tC may provide a molecular rotor effect, enabling non-emissive relaxation coupled to conformational change at the excited state. […] For this reason, it was hypothesized that slowed water dynamics in the major groove of the duplex could cause an increase in the fluorescence of 8-DEA-tC. To test this hypothesis, a comparison of the solvent viscosity sensitivity of fluorescence of the 8-DEA-tC nucleoside with parent tC and 9-(2,2-dicyanovinyl)julolidine (DCVJ, a frequently used reference compound for viscosity effects on fluorescence) using mixtures of glycerol and methanol was performed (see Examples section below).
The responsiveness of (8-DEA)tC, tC, and 9-(2,2-dicyanovinyl)julolidine (DCVJ) to viscosity changes using binary methanol-glycerol mixtures was determined.
Molecular rotors are known to have fluorescent properties that are dependent on the medium viscosity, the fluorescence spectra of parent tC and (8-DEA)tC were examined in methanol-glycerol mixtures ranging from 0 to 100% methanol in glycerol at 25° C. […]
A calibration plot of fluorescence intensity (I) versus viscosity (η) were constructed using the Foster-Hoffman equation ΦF=zη^α, relating the fluorescence quantum yield (ΦF) as a function of viscosity (η) and fluorophore and solvent-specific constants (z, α).

[9] = value reported by the Tor group; cited from earlier work
DNA-RNA heteroduplex = assay: Fluorescence turn-on response in DNA-RNA heteroduplex; assay type: physicochemical; conditions: 1x PBS buffer at pH 7.4
Source text: The RNA version (Y═OH) has been synthesized and characterized. […] The shape (conformation) of double-stranded nucleic acids can vary, and there are three major forms: A, B, and Z. Double-stranded DNA is naturally B form. Double-stranded RNA is naturally A form. And a DNA-RNA heteroduplex also naturally takes A form. For that reason, it is possible to use a DNA-RNA heteroduplex to predict fluorescence properties in pure RNA.

Row | Compound | ds λmax,abs [1] [nm] | ds λmax,em [1] | λmax,abs (ss) [1] [nm] | λmax,em (ss) [1] | ss Φem [2] | ds Φem (complementary strand [3]) | ΔTm (complementary strand [4]) | Tm (complementary strand [4]) [°C] | other results
1 | TA: 5′-CGC-ATX-ATC-G-3′ (SEQ ID NO: 16), X = 8-DEA-tC (DNA CGCATCATCG; DNA, [8-DEA-tC] at 6, backbone not given here) | 420 | 495 (495) nm | 417 | 495 (495) nm | 0.014 | 0.026 | -1.6 °C | 48.7 | –
2 | GG: 5′-CGC-AGX-GTC-G-3′ (SEQ ID NO: 14), X = 8-DEA-tC (DNA CGCAGCGTCG; DNA, [8-DEA-tC] at 6, backbone not given here) | 400 | 499 nm | 415 | 498 nm | 0.027 | 0.056 | -7.0 °C | 58.2 | –
3 | GC: 5′-CGC-AGX-CTC-G-3′ (SEQ ID NO: 12), X = 8-DEA-tC (DNA CGCAGCCTCG; DNA, [8-DEA-tC] at 6, backbone not given here) | 348 | 500 nm | 425 | 499 nm | 0.032 | 0.12 | -14.5 °C | 49.1 | visible fluorescence response of matched duplex (matching complement): large increase in fluorescence; increase in fluorescent quantum yield in duplex DNA as compared with the free nucleoside (complementary strand [3]): 20 fold
4 | CA: 5′-CGC-ACX-ATC-G-3′ (SEQ ID NO: 13), X = 8-DEA-tC (DNA CGCACCATCG; DNA, [8-DEA-tC] at 6, backbone not given here) | 410 | 494 nm | 420 | 493 nm | 0.014 | 0.017 | +2.1 °C | 57.4 | –
5 | GA: 5′-CGC-AGX-ATC-G-3′ (SEQ ID NO: 10), X = 8-DEA-tC (DNA CGCAGCATCG; DNA, [8-DEA-tC] at 6, backbone not given here) | 422 | 499(499) nm | 425 | 499(499) nm | 0.020 | 0.050 | -5.1 °C | 50.7 | –
6 | CCN(CC)c1ccc2c(c1)Nc1nc(=O)n([C@H]3CC(O)[C@@H](CO)O3)cc1S2 (stereo partly drawn) [8-DEA-tC, 8-Diethylamino-tricyclic-2′-deoxy-β-D-ribonucleoside] | – | – | – | – | – | – | – | – | ε ([1]; free nucleoside, 1x PBS buffer): 2700 M⁻¹ cm⁻¹; λmax,abs ([1]; free nucleoside, 1x PBS buffer): 395 nm; λmax,em ([1]; free nucleoside, 1x PBS buffer): 493 nm; λmax,abs [5]: 389 nm; λmax,em [5]: 524 nm; sensitivity to quenching by protic solvent relative to parent tC [2]: approximately twice as sensitive; Φem in deuterated buffer ([2]; deuterated 1X PBS buffer): 0.012; Φem ([2]; free nucleoside, 1x PBS buffer): 0.006; increase of Φem on solvent change ([2]; free nucleoside, 1x PBS buffer to 1,4-dioxane): 10 fold; effect of chloride on fluorescence [6]: more fluorescent with increasing chloride concentration; Φem [7]: 0.06; increase in Φem when mispaired with A (complementary strand [3]; 8-DEA-tC opposite A in duplex): less than 2 fold; Φem opposite an abasic site (complementary strand [3]; 8-DEA-tC opposite abasic site (dSpacer) in duplex): effectively the same as for the free nucleoside; increase in fluorescent quantum yield in duplex DNA as compared with the free nucleoside (complementary strand [3]): ≤ 20 fold; response of fluorescence intensity to viscosity [8]: positively correlated to viscosity
7 | Cc1cc2cn([C@H]3C[C@H](O)[C@@H](CO)O3)c(=O)nc2[nH]1 [pyrrolo-dC, reference compound] | – | – | – | – | – | – | – | – | fluorescence quantum yield ([2]; commercial sample, method validation): 0.046; fluorescence quantum yield [9]: 0.05
8 | AA: 5′-CGC-AAX-ATC-G-3′ (SEQ ID NO: 18), X = 8-DEA-tC (DNA CGCAACATCG; DNA, [8-DEA-tC] at 6, backbone not given here) | 410 | 498 nm | 415 | 497 nm | 0.008 | 0.042 | -2.6 °C | 48.4 | fluorescence turn-on effect in DNA-RNA heteroduplex relative to double-stranded DNA (DNA-RNA heteroduplex): at least three times better
9 | CC: 5′-CGC-ACX-CTC-G-3′ (SEQ ID NO: 15), X = 8-DEA-tC (DNA CGCACCCTCG; DNA, [8-DEA-tC] at 6, backbone not given here) | 413 | 496 (496) nm | 421 | 496 (496) nm | 0.013 | 0.024 | +6.7 °C | 60.2 | –
10 | N#CC(C#N)=Cc1cc2c3c(c1)CCCN3CCC2 [DCVJ, 9-(2,2-dicyanovinyl)julolidine, reference compound] | – | – | – | – | – | – | – | – | response of fluorescence intensity to viscosity [8]: three-fold greater
